This series is described as follows: Level of HClO2 and ClO2^• producible from ClO2^− as a function of pH. The class given is physicochemical.

As for `[O-][Cl+]O` [HClO2], the “level of HClO2 generated, of total available oxyhalogen oxidant” value was 0.64% (pH 4.50) and 0.0020% (pH 7.00).

As to `[O][Cl+][O-]` [ClO2^•, chlorine dioxide], the “total ClO2^• producible, maximum percentage of total oxyhalogen oxidant” value runs as follows: (pH 4.50) at most 0.32%; (pH 7.00) at most 0.0010%.

These data come from patent publication US11000710B2, “Composition and method for the generation of chlorine dioxide from the oxidative consumption of biomolecules” (priority 2009, dated 2021).
